Columns and labels:
[1] = target: T1, Acetylcholinesterase (Rattus norvegicus, UniProt P37136); test: Inhibitory activity against rat brain total Acetylcholinesterase (AChE) was determined using Ellman's method
T1 sequence (P37136 whole entry): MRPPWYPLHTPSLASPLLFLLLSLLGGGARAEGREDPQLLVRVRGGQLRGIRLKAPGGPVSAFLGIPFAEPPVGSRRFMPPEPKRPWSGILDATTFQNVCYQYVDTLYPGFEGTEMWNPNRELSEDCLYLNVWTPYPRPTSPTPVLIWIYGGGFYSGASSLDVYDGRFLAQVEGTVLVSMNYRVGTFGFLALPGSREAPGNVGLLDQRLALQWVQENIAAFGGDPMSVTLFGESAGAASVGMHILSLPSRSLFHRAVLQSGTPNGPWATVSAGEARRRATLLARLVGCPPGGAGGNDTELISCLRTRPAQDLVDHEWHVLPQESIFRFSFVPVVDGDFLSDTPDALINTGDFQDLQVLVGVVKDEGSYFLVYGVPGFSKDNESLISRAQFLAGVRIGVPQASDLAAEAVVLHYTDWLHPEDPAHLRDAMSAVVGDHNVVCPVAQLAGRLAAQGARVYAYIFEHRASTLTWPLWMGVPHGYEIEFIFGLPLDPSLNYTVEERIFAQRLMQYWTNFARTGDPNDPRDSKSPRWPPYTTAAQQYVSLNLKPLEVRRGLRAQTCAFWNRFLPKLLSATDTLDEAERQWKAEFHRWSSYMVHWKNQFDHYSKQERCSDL

[2] = target: Butyrylcholinesterase (Rattus norvegicus, UniProt Q9JKC1)
Butyrylcholinesterase, sequence (Q9JKC1 whole entry): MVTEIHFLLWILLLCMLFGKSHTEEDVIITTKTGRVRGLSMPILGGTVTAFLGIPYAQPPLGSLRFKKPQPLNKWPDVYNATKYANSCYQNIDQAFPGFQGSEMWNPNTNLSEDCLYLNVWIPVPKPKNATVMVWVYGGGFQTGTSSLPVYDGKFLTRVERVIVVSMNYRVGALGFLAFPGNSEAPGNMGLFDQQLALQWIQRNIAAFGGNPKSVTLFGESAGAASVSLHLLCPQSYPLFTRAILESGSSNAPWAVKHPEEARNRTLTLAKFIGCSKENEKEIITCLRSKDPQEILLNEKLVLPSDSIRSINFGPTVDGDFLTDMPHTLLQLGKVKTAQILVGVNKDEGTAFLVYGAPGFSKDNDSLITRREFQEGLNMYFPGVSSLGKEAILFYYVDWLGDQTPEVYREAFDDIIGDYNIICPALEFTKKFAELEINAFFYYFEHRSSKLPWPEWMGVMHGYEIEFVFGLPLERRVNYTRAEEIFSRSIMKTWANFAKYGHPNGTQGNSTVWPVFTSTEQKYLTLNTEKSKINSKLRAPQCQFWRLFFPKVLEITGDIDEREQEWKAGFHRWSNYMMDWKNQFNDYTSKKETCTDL
Description: Inhibitory concentration against rat brain butyrylcholinesterase (BuChE) was determined using Ellman's method

| Structure (SMILES) | IC50 [1] | IC50 [2] |
| --- | --- | --- |
| Cc1nn(-c2ccccc2)c2c(N)c3c(nc12)CCC3 | 32.2 µM |  |
| Cc1nn(-c2ccccc2)c2nc3c(c(N)c12)CCCC3 | 28.5 µM |  |
| COc1ccc2c3c1C[C@H]1C[C@@H](O)C=C[C@]31CCN(C)C2 | 3.1 µM |  |
| Cc1nn(-c2ccccc2)c2nc3nc4c(c(N)c3cc12)CCCC4 | 6.39 µM | 134 µM |
| Cc1nn(-c2ccccc2)c2c(N)c3c(nc12)CCCC3 | 26.7 µM |  |
| Nc1c2c(nc3nn(-c4ccccc4)cc13)CCCC2 | 6.01 µM | 31.9 µM |
| Cc1nn(-c2ccccc2)c2nc3c(c(N)c12)CCC3 | 31.2 µM |  |
| Cc1nn(-c2ccccc2)c2nc3nc4c(c(N)c3cc12)CCC4 | 23.2 µM |  |

Reference: ChEMBL document CHEMBL1136738, “Design, synthesis, and pharmacological profile of novel fused pyrazolo[4,3-d]pyridine and pyrazolo[3,4-b][1,8]naphthyridine isosteres: a new class of potent and selective acetylcholinesterase inhibitors” (J Med Chem, 2003)
